In ChEMBL document CHEMBL4400570, “Designing of acyl sulphonamide based quinoxalinones as multifunctional aldose reductase inhibitors” (Bioorg Med Chem, 2019):
Blank lines part the entries; values can stand above or below the compound they belong to.

How the values were obtained:
[1] = Antioxidant activity assessed as DPPH radical scavenging activity at 10 uM relative to control; type: functional
Rattus norvegicus = organism: Rattus norvegicus; assay: Selectivity index, ratio of IC50 for Wistar rat kidney ALR1 to IC50 for Wistar rat lens ALR2
[2] = molecular target: Aldo-keto reductase family 1 member A1 (Rattus norvegicus, UniProt P51635); assay: Inhibition of Wistar rat kidney ALR1 using sodium D-glucuronate as substrate preincubated for 10 mins followed by substrate addition and measured for 4 mins by spectrophotometric method
Aldo-keto reductase family 1 member A1, sequence (P51635 whole entry, looked up): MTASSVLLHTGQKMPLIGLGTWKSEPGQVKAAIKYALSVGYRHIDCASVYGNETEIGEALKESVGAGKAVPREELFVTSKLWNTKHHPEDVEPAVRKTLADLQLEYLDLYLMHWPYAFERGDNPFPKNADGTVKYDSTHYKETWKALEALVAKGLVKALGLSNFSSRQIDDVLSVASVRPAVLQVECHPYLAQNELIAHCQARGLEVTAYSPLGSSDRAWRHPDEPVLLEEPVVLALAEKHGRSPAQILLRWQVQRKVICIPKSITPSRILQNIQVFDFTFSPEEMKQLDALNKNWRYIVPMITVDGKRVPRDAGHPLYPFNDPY

Brain [3] = assay: Antioxidant activity in rat brain homogenate assessed as inhibition of FeCl2/ascorbic acid-induced lipid peroxidation by measuring reduction in TBARS level at 100 uM measured after 30 mins by spectrophotometric method relative to control; type: functional, tissue-based
[4] = molecular target: Aldo-keto reductase family 1 member B1 (Rattus norvegicus, UniProt P07943); assay: Inhibition of Wistar rat lens ALR2 using L-glyceraldehyde as substrate preincubated for 10 mins followed by substrate addition and measured for 4 mins by spectrophotometric method
[5] = Antioxidant activity assessed as DPPH radical scavenging activity at 5 uM relative to control; type: functional
[6] = Antioxidant activity assessed as DPPH radical scavenging activity at 50 uM relative to control; type: functional
[7] = Antioxidant activity assessed as DPPH radical scavenging activity at 100 uM relative to control; type: functional
[8] = Antioxidant activity assessed as DPPH radical scavenging activity at 1 uM relative to control; type: functional
[9] = Octanol-buffer partition coefficient, log D of the compound at pH 7.4 measured after 24 hrs by HPLC based shake flask assay; type: physicochemical
[10] = molecular target: Aldo-keto reductase family 1 member B1 (Rattus norvegicus) (UniProt P07943); assay: Inhibition of Wistar rat lens ALR2 at 10 uM using L-glyceraldehyde as substrate preincubated for 10 mins followed by substrate addition and measured for 4 mins by spectrophotometric method relative to control
[11] = molecular target: Aldo-keto reductase family 1 member B1 (Rattus norvegicus) (UniProt P07943); assay: Inhibition of Wistar rat lens ALR2 at 100 uM using L-glyceraldehyde as substrate preincubated for 10 mins followed by substrate addition and measured for 4 mins by spectrophotometric method relative to control
Brain [12] = assay: Antioxidant activity in rat brain homogenate assessed as inhibition of FeCl2/ascorbic acid-induced lipid peroxidation by measuring reduction in TBARS level at 50 uM measured after 30 mins by spectrophotometric method relative to control; type: functional, tissue-based

Ratio IC50 (Rattus norvegicus): 12.5 | IC50 [2]: 57.9 µM | IC50 [4]: 4.64 µM
SMILES: O=C(Cn1c(=O)c(-c2ccc(O)c(O)c2)nc2ccccc21)NS(=O)(=O)C(F)(F)F
Activity [1]: 81.4% | inhibition (Brain [3]): 58.7% | Activity [5]: 46% | Activity [6]: 89.6% | Activity [7]: 92.3% | Activity [8]: 6.8%

logD at 24 h [9]: 0.05
SMILES: O=C(O)Cn1c(=O)c(/C=C/c2ccccc2)nc2ccccc21

IC50 [4]: 75.2 µM
SMILES: O=C(Cn1c(=O)c(-c2ccccc2)nc2ccccc21)NS(=O)(=O)C(F)(F)F

IC50 [4]: 35.2 µM
SMILES: CS(=O)(=O)NC(=O)Cn1c(=O)c(/C=C/c2ccccc2)nc2ccccc21

inhibition [10]: 26.5%
SMILES: NC(=O)Cn1c(=O)c(/C=C/c2ccc(F)cc2)nc2ccccc21

IC50 [4]: 71.9 µM
SMILES: O=C(Cn1c(=O)c(-c2ccc(F)cc2)nc2ccccc21)NS(=O)(=O)C(F)(F)F

Ratio IC50 (Rattus norvegicus): 2.67 | IC50 [2]: 42.5 µM | IC50 [4]: 15.9 µM
SMILES: COc1ccc(/C=C/c2nc3ccccc3n(CC(=O)NS(=O)(=O)C(F)(F)F)c2=O)cc1OC

inhibition [11]: 35.9%
SMILES: CS(=O)(=O)NC(=O)Cn1c(=O)c(-c2ccccc2)nc2ccccc21

IC50 [4]: 74.7 µM
SMILES: O=C(Cn1c(=O)c(Oc2ccc(Br)cc2)nc2ccccc21)NS(=O)(=O)C(F)(F)F

IC50 [4]: 54 µM
SMILES: O=C(Cn1c(=O)c(Oc2ccccc2)nc2ccccc21)NS(=O)(=O)C(F)(F)F

Ratio IC50 (Rattus norvegicus): 2.05 | IC50 [2]: 29.2 µM | IC50 [4]: 14.3 µM
SMILES: O=C(Cn1c(=O)c(/C=C/c2ccc(F)cc2)nc2ccccc21)NS(=O)(=O)C(F)(F)F

logD at 24 h [9]: -1.63
SMILES: O=C(O)Cn1c(=O)c(/C=C/c2ccc(O)cc2)nc2ccccc21

SMILES: Cc1c(C)c2c(c(C)c1O)CCC(C)(C(=O)O)O2 (stereo not given)
Activity [1]: 77.9% | inhibition (Brain [3]): 74.1% | Activity [5]: 39.3% | Activity [6]: 94.7% | Activity [7]: 96.5% | Activity [8]: 8.2% | inhibition (Brain [12]): 36.6%

IC50 [4]: 34 µM
SMILES: O=C(Cn1c(=O)c(-c2ccc(C(F)(F)F)cc2)nc2ccccc21)NS(=O)(=O)C(F)(F)F

inhibition [11]: 41.7%
SMILES: CS(=O)(=O)NC(=O)Cn1c(=O)c(Oc2ccccc2)nc2ccccc21

logD at 24 h [9]: 1.73 | Ratio IC50 (Rattus norvegicus): 44.2 | IC50 [2]: 27.7 µM | IC50 [4]: 0.627 µM
SMILES: O=C(Cn1c(=O)c(/C=C/c2ccc(O)cc2)nc2ccccc21)NS(=O)(=O)C(F)(F)F
Activity [1]: 13.2% | inhibition (Brain [3]): 38.6% | Activity [6]: 38.9% | Activity [7]: 56.2%

Ratio IC50 (Rattus norvegicus): 7.26 | IC50 [2]: 73.6 µM | IC50 [4]: 10.1 µM
SMILES: O=C(Cn1c(=O)c(Oc2ccc(O)cc2)nc2ccccc21)NS(=O)(=O)C(F)(F)F
inhibition (Brain [3]): 12.3% | Activity [7]: 8.1%

IC50 [4]: 55.1 µM
SMILES: COc1ccc(Oc2nc3ccccc3n(CC(=O)NS(=O)(=O)C(F)(F)F)c2=O)cc1

logD at 24 h [9]: -2.66
SMILES: COc1cc(/C=C/c2nc3ccccc3n(CC(=O)O)c2=O)ccc1O
Activity [1]: 44.4% | inhibition (Brain [3]): 56.1% | Activity [5]: 21.1% | Activity [6]: 73.6% | Activity [7]: 94%

IC50 [4]: 38.7 µM
SMILES: COc1ccc(-c2nc3ccccc3n(CC(=O)NS(=O)(=O)C(F)(F)F)c2=O)cc1OC

logD at 24 h [9]: -1.08 | Ratio IC50 (Rattus norvegicus): 91.6 | IC50 [2]: 9.16 µM | IC50 [4]: 0.1 µM
SMILES: O=C(Cn1c(=O)c(/C=C/c2ccc(O)c(O)c2)nc2ccccc21)NS(=O)(=O)C(F)(F)F
Activity [1]: 82.1% | inhibition (Brain [3]): 73.5% | Activity [5]: 51.9% | Activity [8]: 11% | inhibition (Brain [12]): 39%

inhibition [10]: 24.6%
SMILES: NC(=O)Cn1c(=O)c(/C=C/c2ccccc2)nc2ccccc21

logD at 24 h [9]: -2.59
SMILES: O=C(O)Cn1c(=O)c(/C=C/c2ccc(O)c(O)c2)nc2ccccc21
Activity [1]: 46% | inhibition (Brain [3]): 59.5% | Activity [5]: 21.8% | Activity [6]: 89.2% | Activity [7]: 95.4%

logD at 24 h [9]: 2.88 | Ratio IC50 (Rattus norvegicus): 4.68 | IC50 [2]: 29.9 µM | IC50 [4]: 6.38 µM
SMILES: O=C(Cn1c(=O)c(/C=C/c2ccccc2)nc2ccccc21)NS(=O)(=O)C(F)(F)F
Activity [1]: 6.4% | inhibition (Brain [3]): 20.6% | Activity [6]: 35.1% | Activity [7]: 58.5%

logD at 24 h [9]: 1.05 | Ratio IC50 (Rattus norvegicus): 7.3 | IC50 [2]: 23.9 µM | IC50 [4]: 3.27 µM
SMILES: COc1cc(/C=C/c2nc3ccccc3n(CC(=O)NS(=O)(=O)C(F)(F)F)c2=O)ccc1O
Activity [1]: 52.2% | inhibition (Brain [3]): 61.9% | Activity [5]: 27.7% | Activity [6]: 81.9% | Activity [7]: 89.8%

IC50 [4]: 38.1 µM
SMILES: O=C(Cn1c(=O)c(Oc2ccc(F)cc2)nc2ccccc21)NS(=O)(=O)C(F)(F)F

IC50 [4]: 40.6 µM
SMILES: O=C(Cn1c(=O)c(Oc2ccc(Cl)cc2)nc2ccccc21)NS(=O)(=O)C(F)(F)F

IC50 [4]: 23.6 µM
SMILES: O=C(Cn1c(=O)c(-c2ccc(O)cc2)nc2ccccc21)NS(=O)(=O)C(F)(F)F
